Laboratory results taken from US20230126447A1, “OCULAR DRUG DEPOT FOR COMPLEMENT-MEDIATED DISORDERS” (priority 2020, published 2023).

Assay: Ocular tissue and plasma pharmacokinetics, 50 mg/kg BID oral, Dutch Belted rabbits (Example 4/5)
Type: in vivo
Settings: DB rabbit; for Mean Choroid-RPE concentration / Mean Iris-Ciliary Body concentration / Mean plasma concentration / Mean retina concentration / Optic Nerve concentration / Vitreous concentration: 50 mg/kg BID oral; for Mean Choroid-RPE concentration / Mean Iris-Ciliary Body concentration / Mean plasma concentration / Mean retina concentration: 50 mg/kg
Description: Study design, including group designation and dose levels, are outlined in Table 15. […] Two Dutch Belted rabbits received vehicle only oral gavage doses for tolerability assessment. […] The dose volume was 5 mL/kg/dose for all groups. Safety was assessed with toxicological and ophthalmic examinations, including slit lamp biomicroscopy, indirect ophthalmoscopy, rebound tonometry, and ultrasonic corneal pachymetry.
For the pharmacokinetic determination, a single blood sample was taken from each rabbit from Groups 1 and 4 at one hour post-dose on Day 15, Group 2 at one hour post-dose on Day 8, and Group 3 at pre-dose, 1, 6, 24, 96, 168, and 240 hours post-dose on Day 15, with the eyes collected at the same time as blood sampling. Plasma, vitreous humor (VH), retina, choroid-retina pigmented epithelium (Choroid-RPE), optic nerve (ON), and iris-ciliary body (I-CB) were analyzed by LC-MS/MS to quantify test article concentrations. The lower limit of quantitation (LLOQ) in plasma and vitreous humor was 1.0 ng/mL. The LLOQ was 6.0 ng/g in retina, choroid-RPE, and I-CB and the optic nerve LLOQ was 15 ng/g, assuming tissue density of 1 g/mL where relevant. […]

[1] = Choroid-RPE, 50 mg/kg BID, Day 15
[2] = Iris-Ciliary Body, 50 mg/kg BID, Day 15
[3] = Optic Nerve, 50 mg/kg BID, Day 15
[4] = Vitreous Humor, 50 mg/kg BID, Day 15
[5] = male, Dutch Belted, po, Choroid-RPE, 50 mg/kg BID, Day 15
[6] = male, Dutch Belted, po, Iris-Ciliary Body, 50 mg/kg BID, Day 15

In the case of CC(=O)c1nn(CC(=O)N2C[C@H](F)C[C@H]2C(=O)Nc2cccc(Br)n2)c2ccc(-c3cnc(C)nc3)cc12 [Compound 1, (2S,4R)-1-(2-(3-Acetyl-5-(2-methylpyrimidin-5-yl)-1H-indazol-1-yl)acetyl)-N-(6-bromopyridin-2-yl)-4-fluoropyrrolidine-2-carboxamide], the AUC(0-t) [1] is reported as 274000 ng·h/g, the “AUC(0-∞)” value [1] is reported as 292000 ng·h/g and the Tlast [1] is reported as 240 h. The “Optic nerve concentration after 24 hours post-dose (non-detectable)” value (50 mg/kg BID for 14 days) was under 1.0 ng/mL, the “Plasma concentration after 24 hours post-dose (non-detectable)” value (50 mg/kg BID for 14 days) was under 1.0 ng/mL and the “Vitreous humor concentration after 24 hours post-dose (non-detectable)” value (50 mg/kg BID for 14 days) was under 1.0 ng/mL. The “Mean Choroid-RPE concentration” value (Day 15, 0 h) was 3918 ± 950 ng/g, the “Mean Iris-Ciliary Body concentration” value (Day 15, 0 h) was 5076 ± 586 ng/g and the Mean plasma concentration (Day 15, 0 h) was 104 ± 68 ng/mL. The Mean retina concentration (Day 15, 0 h) was 159 ± 87.9 ng/g, the “Mean Choroid-RPE concentration” value (Day 15, 1 h) was 8025 ± 2350 ng/g and the “Mean Iris-Ciliary Body concentration” value (Day 15, 1 h) was 11475 ± 2022 ng/g. For the same compound, the Mean plasma concentration (Day 15, 1 h) was 2895 ± 884 ng/mL, the Mean retina concentration (Day 15, 1 h) was 2122 ± 376 ng/g and the “Mean Choroid-RPE concentration” value (Day 15, 6 h) was 4373 ± 1586 ng/g. The “Mean Iris-Ciliary Body concentration” value (Day 15, 6 h) was 8822 ± 2621 ng/g, the Mean plasma concentration (Day 15, 6 h) was 321 ± 70.0 ng/mL and the Mean retina concentration (Day 15, 6 h) was 725 ± 117 ng/g. For the same compound, the “Mean Choroid-RPE concentration” value (Day 15, 24 h) was 2097 ± 273 ng/g, the “Mean Iris-Ciliary Body concentration” value (Day 15, 24 h) was 5556 ± 2128 ng/g and the Mean plasma concentration (Day 15, 24 h) was 39.9 ± 4.45 ng/mL. For the same compound, the Mean retina concentration (Day 15, 24 h) was 265 ± 113 ng/g, the “Optic Nerve concentration” value (Day 15, 96 h) was “BLQ^b” and the Vitreous concentration (Day 15, 96 h) was “BLQ^c”. The “Mean Choroid-RPE concentration” value (Day 15, 96 h) was 873 ± 392 ng/g, the “Mean Iris-Ciliary Body concentration” value (Day 15, 96 h) was 2837 ± 1136 ng/g and the Mean plasma concentration (Day 15, 96 h) was “BLQ^a and BLQ”. The Mean retina concentration (Day 15, 96 h) was 32.3 ± 24.2 ng/g, the “Optic Nerve concentration” value (Day 15, 168 h) was “BLQ^b” and the Vitreous concentration (Day 15, 168 h) was “BLQ^c”. For the same compound, the “Mean Choroid-RPE concentration” value (Day 15, 168 h) was 645 ± 67.2 ng/g, the “Mean Iris-Ciliary Body concentration” value (Day 15, 168 h) was 2292 ± 445 ng/g and the Mean plasma concentration (Day 15, 168 h) was “BLQ^a and BLQ”. For the same compound, the Mean retina concentration (Day 15, 168 h) was 54.9 ± 7.28 ng/g, the “Optic Nerve concentration” value (Day 15, 240 h) was “BLQ^b” and the Vitreous concentration (Day 15, 240 h) was “BLQ^c”. The “Mean Choroid-RPE concentration” value (Day 15, 240 h) was 195 ± 41.5 ng/g, the “Mean Iris-Ciliary Body concentration” value (Day 15, 240 h) was 1624 ± 1275 ng/g and the Mean plasma concentration (Day 15, 240 h) was “BLQ^a and BLQ”. The Mean retina concentration (Day 15, 240 h) was 39.4 ± 20.1 ng/g, the AUC(0-t) [2] was 801000 ng·h/g and the “AUC(0-∞)” value [2] was 1220000 ng·h/g. The Tlast [2] was 240 h, the AUC(0-t) [3] was 4880 ng·h/g and the “AUC(0-∞)” value [3] was 5180 ng·h/g. The AUC(0-t) (Retina, 50 mg/kg BID, Day 15) was 30300 ng·h/g, the “AUC(0-∞)” value (Retina, 50 mg/kg BID, Day 15) was 35700 ng·h/g and the Tlast (Retina, 50 mg/kg BID, Day 15) was 240 h. For the same compound, the AUC(0-t) [4] was 419 ng·h/g, the “AUC(0-∞)” value [4] was 442 ng·h/g and the Tlast [4] was 24 h. It also gave a Cmax [5] of 8020 ng/g, an MRT last [5] of 68.6 h and a Tmax [5] of 1 h. It also gave a half-life [5] of 66.4 h, a Cmax [6] of 11500 ng/g and an MRT inf [6] of 138 h. It also gave an MRT last [6] of 88 h, a Tmax [6] of 1 h and a half-life [6] of 178 h.
